# Measurements reported in patent US12162935B2, “Regimens, compositions and methods with capsaicin and TNF-alpha inhibitor” (priority 2018, dated 2024).
# Tests used:
# [1] = system: UB/OC-1 cells; experiment: Cell viability assay (MTS assay); assay type: cell-based; settings: capsaicin 2.5 μM prior to cisplatin 20 μM
# Procedure: The in vitro UB/OC1 cell proliferation was performed by using the CellTiter 96® AQueous One Solution Cell Proliferation Assay Kit (Promega, Madison, WI), according to the manufacturer's instructions. 3,500 cells were seeded per well into a 96-well plate. […] After 48 h, 20 μl of CellTiter 96 AQueous One Solution reagent was added to each well in 100 μl of total volume of media. Cells were incubated for 1 h, and recorded absorbance at 490 nm using an ELISA plate reader. The absorbance is directly proportional to the number of living cells and is expressed as a percent relative to vehicle-treated cells.
# [2] = system: Wistar rats; experiment: Restoration of hearing after permanent threshold shifts (Example 10B); assay type: in vivo, rat; settings: treatment after PTS at 4 weeks; oral capsaicin 5 mg/kg 3 days, ETA 1 mg/kg s.c. day 2, three weeks
# Procedure: FIG. 23A is a schematic showing the experimental paradigm used in Example 10B. Pre-treatment baseline ABRs were performed in naïve male Wistar rats. The rats were then used either as sham controls (no noise exposure) or exposed-noise (122 dB, OBN centered at 16 kHz for 1 hour). Post noise exposure ABRs were repeated at 4 weeks to establish permanent threshold shifts (PTS). […] Final ABR threshold values were evaluated at week 9 post noise exposure.
# Values shown in FIGS. 23A-23C and otherwise provided with respect to this Example 10B are expressed as the mean±SEM. Statistical significance was analyzed using the ANOVA and Tukey's host hoc analysis.
# [3] = system: UB/OC-1 cells; experiment: Western blot of STAT1, STAT3 and JAK2 phosphorylation; assay type: cell-based, mouse
# [4] = system: rat cochlea; experiment: Immunolabelling of mid-modiolar cochlear sections, fluorescent intensity analyses; assay type: in vivo
# Procedure: Cochleae were perfused with a 4% paraformaldehyde solution, cochleae were decalcified for 7-10 days in 120 mM EDTA, embedded them in paraffin and then sectioned the specimens [Mukherjea et al., 2010]. Slides were deparaffined, rehydrated and then stained with primary and secondary antibodies. Glass coverslips were mounted on the specimens with ProLong Diamond mounting medium. Images were obtained using a Leica confocal microscope (Buffalo Grove, IL).
# Image J software was used to analyze the mean gray area for the various images. These values were then used to quantify the increase or decrease in % fluorescence intensity of the various regions of the samples compared to control.
# [5] = biological target: TRPV1 (Homo sapiens, UniProt Q8NER1); experiment: Ca2+ imaging (Fluo-4AM) in HEKVR1 cells; assay type: cell-based; settings: capsaicin 2.5 μM
# TRPV1, sequence (Q8NER1 whole entry, species assumed): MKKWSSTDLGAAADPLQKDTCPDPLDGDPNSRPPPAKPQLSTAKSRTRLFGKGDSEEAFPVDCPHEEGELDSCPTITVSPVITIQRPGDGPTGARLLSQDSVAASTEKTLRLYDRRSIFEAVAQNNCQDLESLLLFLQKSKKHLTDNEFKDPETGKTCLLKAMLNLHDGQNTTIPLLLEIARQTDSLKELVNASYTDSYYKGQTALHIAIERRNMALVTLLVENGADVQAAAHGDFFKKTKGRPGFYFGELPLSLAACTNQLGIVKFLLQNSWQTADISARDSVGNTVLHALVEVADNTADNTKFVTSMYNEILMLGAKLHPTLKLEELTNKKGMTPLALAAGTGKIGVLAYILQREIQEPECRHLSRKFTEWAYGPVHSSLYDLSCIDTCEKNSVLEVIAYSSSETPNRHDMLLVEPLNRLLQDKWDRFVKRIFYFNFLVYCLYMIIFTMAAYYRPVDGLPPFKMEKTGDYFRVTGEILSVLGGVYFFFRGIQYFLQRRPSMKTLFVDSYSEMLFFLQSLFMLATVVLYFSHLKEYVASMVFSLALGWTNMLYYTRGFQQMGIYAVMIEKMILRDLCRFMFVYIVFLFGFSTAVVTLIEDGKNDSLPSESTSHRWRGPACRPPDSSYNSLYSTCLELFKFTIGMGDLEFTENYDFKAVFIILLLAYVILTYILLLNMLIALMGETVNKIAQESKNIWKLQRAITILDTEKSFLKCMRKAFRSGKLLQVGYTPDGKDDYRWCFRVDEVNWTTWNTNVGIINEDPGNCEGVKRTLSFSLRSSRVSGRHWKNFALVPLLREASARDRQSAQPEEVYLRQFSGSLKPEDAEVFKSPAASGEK
# Description: NE has been linked to immediate increase in ROS generation and persistent oxidative stress in the cochlea2, leading to generation of reactive oxygen species such as: hydroxyl […] (OH^−), superoxide anion (O^2—) and hydrogen peroxide (H2O2).
# [6] = capsaicin 2.5 μM 30 min and/or cisplatin 2.5 μM 45 min (FIG. 5.E)
structure (smiles),measurement,setting,value
"COc1cc(CNC(=O)CCCC/C=C/C(C)C)ccc1O [capsaicin, 8-methyl-N-vanillyl-trans-6-nonenamide]",cisplatin-induced cell killing,[1],blocked cisplatin-induced cell killing
same,average hearing threshold shifts at 9 weeks,[2],15-25 dB
same,JAK2 phosphorylation,"[3]; 2.5 μM, time course",increased activation
same,p-STAT1,[3]; [6],135.4±4%
same,p-STAT3,[3]; [6],173±4%
same,p-STAT3/p-STAT1 ratio peak value,"[3]; capsaicin 2.5 μM, reached in 45 min",~130%
same,time of peak STAT1 Ser^727 phosphorylation,"[3]; capsaicin 2.5 μM, returns to baseline by 120 min",45 min
same,p-STAT3/p-STAT1 ratio,[3]; of control (FIG. 5.F),128±4.1%
same,"TRPV1, NOX3 and iNOS protein expression induced by cisplatin",[4]; capsaicin pre-treatment,significantly decreased
same,CB2 expression in three regions of the cochleae,[4]; capsaicin pretreatment before cisplatin,significantly increased the expression of CB2
same,p-STAT3/p-STAT1 ratio in cochlear regions,"[4]; oral capsaicin pretreatment, compared to cisplatin",significantly increased
same,"CB2 labelling in the OHCs, SGs and SVA",[4]; single agent,increased CB2 labelling in all the three regions to an even greater extent
same,"TRPV1, NOX3 and iNOS labelling in the OHCs, SG and SVA",[4]; single agent vs control,did not produce significant change
same,p-STAT3/p-STAT1 ratio in cochlear regions,"[4]; single agent, 72 h, vs oral PBS",increased the p-STAT3/p-STAT1 ratio in all the three regions of the organ of Corti significantly
same,increase in Ca^2+ over basal fluorescence,[5],741±22%
